Data published in patent US12195427B2, “MASP-2 inhibitors and methods of use” (priority 2018, dated 2025).

Assays:
MASP-2 CCP2-SP = MASP-2 CCP2-SP (Homo sapiens (Human), UniProt O00187); experiment: MASP-2 co-crystallization, X-ray crystallography and structure analysis (H-bonds, van der Waals contacts); set-up: van der Waals contact distance, MASP-2 HIS 483 atom CD2 / van der Waals contact distance, MASP-2 HIS 483 atom NE2 / van der Waals contact distance, SER 654 C to compound atom / van der Waals contact distance, SER 654 O to compound atom / van der Waals contact distance, TRP 655 C to compound atom / van der Waals contact distance, MASP-2 GLY 528 atom CA / van der Waals contact distance TRP 655 atom CZ3 / van der Waals contact distance TRP 655 atom N / van der Waals contact distance TRP 655 atom CE3 / van der Waals contact distance GLY 656 atom C / van der Waals contact distance GLY 656 atom CA / van der Waals contact distance GLY 656 atom O / van der Waals contact distance, MASP-2 TYR 607 atom CD1 / van der Waals contact distance, MASP-2 PRO 606 atom O / d(C3,CA1) / d(CA1,N1)2 / d(H4,O1) / d(H4,O2) / d(O1,O2) / d(CA1,O2) / d(CA6,O1) / d(CA6,O2) / d(CA1,C5) / d(O2,H3) / d(N2,C2) / d(CA5,N2) / d(N2,C4) / d(N2,C6) / d(N2,CA3) / d(N2,O3) / d(O4,H2): unit not given beside the values;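 for Ligand-pharmacophore element distance, pharmacophore element C2: distance from averaged pharmacophore element to bound ligand; missing value means element absent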;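 for Ligand-pharmacophore element distance, pharmacophore element C3: distance from averaged pharmacophore element to bound ligand; missing value means element absent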;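 for Ligand-pharmacophore element distance, pharmacophore element C4: distance from averaged pharmacophore element to bound ligand; missing value means element absent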;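 for Ligand-pharmacophore element distance, pharmacophore element C5: distance from averaged pharmacophore element to bound ligand; missing value means element absent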
Method in brief: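 First, CCP2-SP constructs with or without a 6His tag are produced in E. coli. Crystals are then soaked once or twice with inhibitor, cryoprotected in 20% glycerol or frozen directly, and diffracted at synchrotron beamlines. Phasing uses molecular replacement with parts of 1Q3X.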

Lectin Pathway = Lectin Pathway Activation Assay in Human Serum (mannan-coated ELISA, C3c detection); assay type: biochemical; settings: 1% human serum
Experimental: Microtiter ELISA plate was coated with mannan from Saccharomyces cerevisiae (Sigma-Aldrich, M7504) for overnight at 4° C. in coating buffer [15 mM Na2CO3, 35 mM NaHCO3].

MASP-2 (CCP1-CCP2-SP) = MASP-2 (CCP1-CCP2-SP) (Homo sapiens (Human), UniProt O00187); experiment: Enzymatic Assay for MASP-2 (fluorogenic substrate); assay type: biochemical
[1] = Table A5-1 pharmacophore: distance between elements, S2/S1 region
[2] = Table A5-2 pharmacophore distance, S3/S4 region
[3] = Table A7-1, between pharmacophore elements of the bound compound
[4] = Table A8-6, nearest protein atom in cell to the left

Sequence of MASP-2 CCP2-SP (O00187 445-686): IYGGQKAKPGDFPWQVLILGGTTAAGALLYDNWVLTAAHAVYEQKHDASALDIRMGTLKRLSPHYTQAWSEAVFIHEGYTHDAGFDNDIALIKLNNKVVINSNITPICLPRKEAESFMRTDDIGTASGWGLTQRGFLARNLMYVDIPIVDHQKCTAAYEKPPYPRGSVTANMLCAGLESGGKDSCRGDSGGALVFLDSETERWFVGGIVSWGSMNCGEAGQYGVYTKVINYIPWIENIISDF
Sequence of MASP-2 CCP2-SP (O00187 364-432 partner): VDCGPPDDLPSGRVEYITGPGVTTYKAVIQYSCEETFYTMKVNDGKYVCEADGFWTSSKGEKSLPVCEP
Sequence of MASP-2 (CCP1-CCP2-SP) (O00187 445-686): as the sequence (O00187 445-686) above

Structure (SMILES): C[C@H](NC(=O)[C@H]1C[C@H](c2ccccc2)CN1)C(=O)NCc1ccc2c(N)nccc2c1 [compound 1090]
- H-bond distance to MASP-2 ASP 627 atom OD2 (MASP-2 CCP2-SP; Table A1 (H-Bonds), ASP 627 OD2): 2.8
- H-bond distance to MASP-2 GLY 656 atom N (MASP-2 CCP2-SP; Table A1 (H-Bonds), GLY 656 N): 3.3
- H-bond distance to MASP-2 GLY 656 atom O (MASP-2 CCP2-SP; Table A1 (H-Bonds), GLY 656 O): 2.78
- H-bond distance to MASP-2 SER 654 atom O (MASP-2 CCP2-SP; Table A1 (H-Bonds), SER 654 O): 2.96
- H-bond distance to MASP-2 SER 657 atom OG (MASP-2 CCP2-SP; Table A1 (H-Bonds), SER 657 OG): 2.73
- van der Waals contact distance, MASP-2 HIS 483 atom CD2 (MASP-2 CCP2-SP; Table A2-1): 3.74
- van der Waals contact distance, MASP-2 PHE 529 atom CE1 (MASP-2 CCP2-SP; Table A2-3): 3.87
- van der Waals contact distance, MASP-2 amino acid atom to compound atom (MASP-2 CCP2-SP; Table A2-7 continued: CYS 629 (CA)): 3.89
- van der Waals contact distance, MASP-2 amino acid atom to compound atom (MASP-2 CCP2-SP; Table A2-8, CYS 629 / ARG 630, AA atoms CB, N, C, O, CA, CB, CD): 3.9
- van der Waals contact distance, MASP-2 amino acid atom to compound atom (MASP-2 CCP2-SP; Table A2-9, ARG 630, AA atoms CG, CZ): 3.64
- van der Waals contact distance, MASP-2 amino acid atom to compound atom (MASP-2 CCP2-SP; Table A2-9 second part, ARG 630, AA atoms N, NE, NH1): 3.85
- van der Waals contact distance SER 657 atom C (MASP-2 CCP2-SP; Table A2-14, MASP-2 SER 657 C, columns c12-c13 (inferred)): 3.7
- Ligand-pharmacophore element distance, pharmacophore element C2 (MASP-2 CCP2-SP; Table A4-1, element C2): 0
- Ligand-pharmacophore element distance, pharmacophore element C3 (MASP-2 CCP2-SP; Table A4-1, element C3): 0
- Ligand-pharmacophore element distance, pharmacophore element C4 (MASP-2 CCP2-SP; Table A4-1, element C4): 0
- Ligand-pharmacophore element distance, pharmacophore element C5 (MASP-2 CCP2-SP; Table A4-1, element C5): 0
- Ligand-pharmacophore element distance, pharmacophore element C6 (MASP-2 CCP2-SP; Table A4-1, element C6): 0
- Ligand-pharmacophore element distance, pharmacophore element C7 (MASP-2 CCP2-SP; Table A4-1, element C7): 0
- Ligand-pharmacophore element distance, pharmacophore element CA1 (MASP-2 CCP2-SP; Table A4-1, element CA1): 0.98
- Ligand-pharmacophore element distance, pharmacophore element CA2 (MASP-2 CCP2-SP; Table A4-1, element CA2): 0
- Ligand-pharmacophore element distance, pharmacophore element CA3 (MASP-2 CCP2-SP; Table A4-1, element CA3): 0
- Ligand-pharmacophore element distance, pharmacophore element CA4 (MASP-2 CCP2-SP; Table A4-1, element CA4): 0
- Ligand-pharmacophore element distance, pharmacophore element CA5 (MASP-2 CCP2-SP; Table A4-1, element CA5): 0.91
- Ligand-pharmacophore element distance, pharmacophore element CA6 (MASP-2 CCP2-SP; Table A4-1, element CA6): 0
- d(CA1,O1) (MASP-2 CCP2-SP; [1]): 5.59
- d(CA1,O2) (MASP-2 CCP2-SP; [1]): 5.11
- d(H4,O1) (MASP-2 CCP2-SP; [1]): 3.15
- d(H4,O2) (MASP-2 CCP2-SP; [1]): 3.68
- d(O1,O2) (MASP-2 CCP2-SP; [1]): 3.38
- d(CA5,N2) (MASP-2 CCP2-SP; [2]): 5.09
- d(N2,C4)4 (MASP-2 CCP2-SP; [2]): 7.94
- d(O2,H3) (MASP-2 CCP2-SP; [2]): 5.87
- d(O2,N2) (MASP-2 CCP2-SP; [2]): 2.72
- a(CA1, O1, O2) (MASP-2 CCP2-SP; Table A6-1 pharmacophore angle): 100.34
- a(O1, O2, H4) (MASP-2 CCP2-SP; Table A6-1 pharmacophore angle): 121.29
- a(O1, O2, H3) (MASP-2 CCP2-SP; Table A6-2 pharmacophore angle): 152.05
- a(O1, O2, N2) (MASP-2 CCP2-SP; Table A6-2 pharmacophore angle): 140.84
- Pharmacophore torsion angle a(H4, O1, O2, H3) (MASP-2 CCP2-SP; [3]): 91.31
- Pharmacophore torsion angle a(H4, O1, O2, N2) (MASP-2 CCP2-SP; [3]): −177.46
- Pharmacophore torsion angle a(O1, H4, O2, CA1) (MASP-2 CCP2-SP; [3]): −92.71
- Pharmacophore torsion angle a(O1, O2, N2, CA5) (MASP-2 CCP2-SP; Table A7-2, between pharmacophore elements of the bound compound): 134.91
- Pharmacophore protein distance to MET_658 (first MET_658 column) (MASP-2 CCP2-SP; Table A8-6, 6th residue column, nearest protein atom in cell to the left): 2.69
- Pharmacophore protein distance to MET_658 (second MET_658 column) (MASP-2 CCP2-SP; Table A8-6, 9th residue column, nearest protein atom in cell to the left): 2.71
- Pharmacophore protein distance to GLY_528 (MASP-2 CCP2-SP; [4]): 3.61
- Pharmacophore protein distance to PHE_529 (MASP-2 CCP2-SP; [4]): 2.77
- Pharmacophore protein distance to PRO_608 (MASP-2 CCP2-SP; [4]): 3.95
- Pharmacophore protein distance to SER_611 (MASP-2 CCP2-SP; [4]): 2.87
- Pharmacophore protein distance to TRP_655 (MASP-2 CCP2-SP; Table A8-6, pharmacophore elements C6, CA3, O3, H1, nearest protein atom in cell to the left): 3.50
- IC50 (Lectin Pathway): 500 to 5000 nM
- Ki (MASP-2 (CCP1-CCP2-SP)): < 500 nM
